Assay results from ChEMBL document CHEMBL5058564, “EUbOPEN Chemogenomics Library 2 (Incucyte)” (2022).

Experiments:
Type in all cases: toxicity, cell-based
HEK-293T = assay: Incucyte cell viability with HEK293T; settings: human, 10 µM, compound concentration 10 uM
U2OS = assay: Incucyte cell viability with U2OS; settings: human, 10 µM, compound concentration 10 uM
Fibroblast = assay: Incucyte cell viability with human fibroblast; settings: 10 µM, compound concentration 10 uM
[1] = 6 h, replicate number 1, timepoint 6 hours
[2] = 6 h, replicate number 2, timepoint 6 hours
[3] = 12 h, replicate number 1, timepoint 12 hours
[4] = 18 h, replicate number 1, timepoint 18 hours
[5] = 24 h, replicate number 1, timepoint 24 hours
[6] = 0 h, replicate number 2, timepoint 0 hours
[7] = 12 h, replicate number 2, timepoint 12 hours
[8] = 18 h, replicate number 2, timepoint 18 hours
[9] = 24 h, replicate number 2, timepoint 24 hours
[10] = 0 h, replicate number 1, timepoint 0 hours
Further: unitless GR value; below 1 slowed growth and below 0 cell loss.

Row | Structure (SMILES) | Growth Rate (HEK-293T; [1]) | Growth Rate (HEK-293T; [3]) | Growth Rate (HEK-293T; [4]) | Growth Rate (HEK-293T; [5]) | Growth Rate (U2OS; [1]) | Growth Rate (U2OS; [3]) | Growth Rate (U2OS; [7]) | Growth Rate (U2OS; [4]) | Growth Rate (U2OS; [8]) | Growth Rate (U2OS; [5]) | Growth Rate (U2OS; [9]) | Growth Rate (Fibroblast; [10]) | Growth Rate (Fibroblast; [1]) | Growth Rate (Fibroblast; [2]) | Growth Rate (Fibroblast; [3]) | Growth Rate (Fibroblast; [4]) | Growth Rate (Fibroblast; [5]) | Growth Rate (HEK-293T; [6]) | Growth Rate (U2OS; [10]) | Growth Rate (Fibroblast; [6]) | further results
1 | N=C(N)NCCC[C@@H](NC(=O)C(c1ccccc1)c1ccccc1)C(=O)NCc1ccc(CNC(N)=O)cc1.O=C(O)C(F)(F)F.O=C(O)C(F)(F)F | 1 | 0.8 | 0.83 | 0.98 | 0.1 | 0.58 | 0.93 | 0.59 | 0.96 | 0.82 | 0.83 | -0.19 | 0.44 | 0.45 | 0.58 | 0.41 | 0.52 | – | – | – | Growth Rate (HEK-293T; [2]): 0.41; Growth Rate (U2OS; [6]): 0.75; Growth Rate (U2OS; [2]): 0.61; Growth Rate (Fibroblast; [7]): 0.67
2 | CCn1c(-c2nc3cc(C(=O)N4CCCC(N)C4)ccc3n2C)cc2ccccc21.Cl (configuration not stated) | 0.72 | 0.44 | 0.73 | 0.83 | 0.71 | 0.95 | – | – | – | – | – | – | -0.75 | 0.43 | -0.23 | -0.08 | 0.15 | -1 | -0.61 | 0.99 | Growth Rate (Fibroblast; [7]): 0.52; Growth Rate (Fibroblast; [8]): 0.56; Growth Rate (Fibroblast; [9]): 0.6
3 | COc1cc(OC)cc(C(=O)NNC(=O)Nc2cccc3ccccc23)c1 | – | – | 0.97 | – | 0.36 | 1 | 0.87 | 0.78 | 0.77 | 0.87 | 0.86 | – | 0.64 | – | 0.93 | – | – | 0.45 | 0.7 | – | Growth Rate (HEK-293T; [10]): 0.01; Growth Rate (U2OS; [6]): -1
4 | Brc1c(N=C2NCCN2)ccc2nccnc12.O=C(O)C(O)C(O)C(=O)O | 0.47 | 0.79 | 0.92 | 0.83 | 0.6 | 0.41 | – | 0.78 | 0.91 | 0.89 | – | – | 0.39 | 0.7 | 0.82 | 0.86 | 0.87 | 0.92 | 0.29 | 0.6 | Growth Rate (HEK-293T; [10]): 0.76; Growth Rate (HEK-293T; [2]): 0.95; Growth Rate (HEK-293T; [7]): 0.72; Growth Rate (HEK-293T; [9]): 0.88; Growth Rate (Fibroblast; [7]): 0.94; Growth Rate (Fibroblast; [8]): 0.83; Growth Rate (Fibroblast; [9]): 0.91
5 | Cl.O=C1CC[C@@]2(O)[C@H]3Cc4ccc(O)c5c4[C@@]2(CCN3CC2CC2)[C@H]1O5 [NALTREXONE HYDROCHLORIDE] | – | – | – | – | -0.02 | 0.39 | 0.91 | 0.67 | – | 0.83 | – | 0.67 | 0.38 | – | – | – | 0.6 | 0.83 | 0.86 | 0.63 | Growth Rate (HEK-293T; [2]): 0.84; Growth Rate (U2OS; [6]): -1; Growth Rate (U2OS; [2]): 0.81
6 | Br.Cc1cccc(C2CN(C)CCc3c2cc(O)c(O)c3Cl)c1 (configuration not stated) | 0.81 | 0.71 | 0.95 | 0.93 | – | 0.92 | – | 0.87 | 0.92 | 0.84 | 0.97 | -0.09 | – | – | – | – | – | 0.8 | – | 0.18 | Growth Rate (HEK-293T; [2]): 0.45; Growth Rate (HEK-293T; [7]): 0.8; Growth Rate (HEK-293T; [8]): 0.81; Growth Rate (U2OS; [2]): 0.97
7 | NCCc1c[nH]c2ccc(C(N)=O)cc12.O=C(O)/C=C\C(=O)O | 0.61 | 0.96 | 0.9 | 0.9 | 0.87 | – | – | 0.89 | – | 0.83 | – | 0.89 | – | – | – | – | – | -0.18 | -0.1 | -0.08 | Growth Rate (HEK-293T; [10]): 0.4; Growth Rate (U2OS; [6]): 0.34; Growth Rate (Fibroblast; [8]): 0.95
8 | Cl.N=C(N)NC(=O)Cc1c(Cl)cccc1Cl [GUANFACINE HYDROCHLORIDE] | 0.87 | 0.84 | 0.76 | 0.76 | 0.84 | 0.99 | – | – | – | – | – | 0.58 | – | – | – | 0.88 | 0.38 | – | – | 0.01 | Growth Rate (HEK-293T; [10]): 0.44; Growth Rate (Fibroblast; [8]): 0.92; Growth Rate (Fibroblast; [9]): 0.81
9 | CCCN1CCC[C@@H]2Cc3n[nH]cc3C[C@H]21.Cl [QUINPIROLE HYDROCHLORIDE] | 0.41 | – | – | – | -0.04 | – | 0.66 | 0.9 | 0.96 | 0.88 | 0.96 | -0.18 | 0.59 | – | 0.29 | 0.54 | – | 0.26 | – | 0.29 | Growth Rate (U2OS; [2]): 0.9
10 | CN(C)C/C=C/C(=O)Nc1ccc(C(=O)N2CCCC(Nc3ncc(Cl)c(-c4c[nH]c5ccccc45)n3)C2)cc1 (configuration not stated) | -0.75 | -0.58 | -0.42 | -0.27 | 0.53 | 0.51 | 0.63 | 0.27 | 0.26 | 0.09 | 0.13 | – | -0.96 | -0.55 | -0.75 | -0.7 | -0.55 | – | -0.56 | – | Growth Rate (HEK-293T; [2]): -0.93; Growth Rate (HEK-293T; [7]): -0.66; Growth Rate (HEK-293T; [8]): -0.43; Growth Rate (HEK-293T; [9]): -0.31; Growth Rate (U2OS; [6]): 0.12; Growth Rate (Fibroblast; [7]): -0.33; Growth Rate (Fibroblast; [8]): -0.1; Growth Rate (Fibroblast; [9]): -0.06
11 | Cc1ccc(OCC(O)C(C)NC(C)C)c2c1CCC2.Cl (configuration not stated) | – | 0.49 | 0.16 | 0.03 | 1 | 0.83 | – | 0.98 | – | – | – | 0.41 | – | 0.19 | 0.74 | 0.5 | 0.38 | 0.95 | 0.09 | 0.52 | Growth Rate (HEK-293T; [2]): 0.7; Growth Rate (HEK-293T; [7]): 0.63; Growth Rate (HEK-293T; [8]): 0.65; Growth Rate (HEK-293T; [9]): 0.62; Growth Rate (U2OS; [6]): 0.28; Growth Rate (U2OS; [2]): 0.87; Growth Rate (Fibroblast; [7]): 0.32; Growth Rate (Fibroblast; [8]): 0.54; Growth Rate (Fibroblast; [9]): 0.51
12 | CCOC(=O)N[C@@H]1CC[C@@H]2[C@@H](C1)C[C@H]1C(=O)O[C@H](C)[C@H]1[C@H]2/C=C/c1ccc(-c2cccc(F)c2)cn1 [VORAPAXAR] | 0.72 | 0.42 | 0.48 | 0.45 | – | – | 0.96 | – | 0.88 | – | 0.9 | – | 0.13 | -0.65 | -0.08 | -0.15 | 0.18 | – | -0.64 | – | Growth Rate (HEK-293T; [7]): 0.85; Growth Rate (HEK-293T; [8]): 0.87; Growth Rate (HEK-293T; [9]): 0.95; Growth Rate (Fibroblast; [7]): -0.18; Growth Rate (Fibroblast; [8]): -0.11; Growth Rate (Fibroblast; [9]): 0.15
13 | CCNC1(C(N)=O)CCN(c2ncnc3c2nc(-c2ccccc2Cl)n3-c2ccc(Cl)cc2)CC1 [OTENABANT] | – | – | – | – | – | – | 0.93 | – | 0.92 | – | 0.93 | -0.61 | – | 0.96 | -0.34 | 0.38 | -0.07 | – | -0.85 | 0.22 | Growth Rate (HEK-293T; [7]): 0.81; Growth Rate (U2OS; [2]): 0.79; Growth Rate (Fibroblast; [7]): 1
